The text below walks through data of ChEMBL document CHEMBL3779788, “Facile synthesis of 1,3-thiazolidin-4-ones as antitubercular agents” (Bioorg Med Chem Lett, 2016).

Converted amounts (≈) assume the structure as drawn. A value given as a limit tells only on which side of the number the result lay.

Data set [1] in a line: (§1) Antitubercular activity against dormant Mycobacterium bovis BCG ATCC 35743 by NR assay. It is filed as functional, Mycobacterium bovis BCG str. ATCC 35743.
Data set [2] relates to Mycobacterium bovis BCG str. ATCC 35743. The description is as §1. The class given is functional.
Data set [3] deals with Mycobacterium tuberculosis. Nature of the data set: Antitubercular activity against dormant Mycobacterium tuberculosis H37Ra by XTT reduction menadione assay. The class given is functional, organism-based. Background: Formazan colour is commonly taken as a measure of viable cells.
In data set [4] the test system is Mycobacterium bovis BCG str. ATCC 35743. In words: Antitubercular activity against dormant Mycobacterium bovis BCG ATCC 35743 assessed as growth inhibition at 3 ug/mL by NR assay. It is filed as functional.
Data set [5] shares this test system. In words: Antitubercular activity against dormant Mycobacterium bovis BCG ATCC 35743 assessed as growth inhibition at 10 ug/mL by NR assay. It is filed as functional.
The subject of data set [6] is Mycobacterium tuberculosis. Nature of the data set: Antitubercular activity against dormant Mycobacterium tuberculosis H37Ra assessed as growth inhibition at 30 ug/mL by XTT reduction menadione assay. The note with it: read-out: GI. The class given is functional.
Data set [7] relates to Mycobacterium tuberculosis. Nature of the data set: Antitubercular activity against dormant Mycobacterium tuberculosis H37Ra assessed as growth inhibition at 10 ug/mL by XTT reduction menadione assay. The note with it: read-out: GI. The class given is functional.
Data set [8] deals with Mycobacterium tuberculosis. In words: Antitubercular activity against dormant Mycobacterium tuberculosis H37Ra assessed as growth inhibition at 3 ug/mL by XTT reduction menadione assay. It is filed as functional. Conditions: read-out: GI.
Data set [9] concerns Mycobacterium bovis BCG str. ATCC 35743. Nature of the data set: Antitubercular activity against dormant Mycobacterium bovis BCG ATCC 35743 assessed as growth inhibition at 30 ug/mL by NR assay. It is filed as functional.
Data set [10] is described as follows: Cytotoxicity against human MCF7 cells at 30 ug/mL by MTT assay. The note with it: read-out: INH. The class given is cell-based.
Data set [11] can be described thus: Cytotoxicity against human MCF7 cells at 10 ug/mL by MTT assay. It is filed as cell-based. The note with it: read-out: INH.
The nature of data set [12]: Cytotoxicity against human MCF7 cells at 3 ug/mL by MTT assay. The class given is cell-based. The note with it: read-out: INH.
A short description of data set [13]: Cytotoxicity against human A549 cells at 30 ug/mL by MTT assay. It is filed as cell-based. Conditions: read-out: INH.
Data set [14] in a line: Cytotoxicity against human A549 cells at 10 ug/mL by MTT assay. It is filed as cell-based. The note with it: read-out: INH.
Data set [15] in a line: Cytotoxicity against human A549 cells at 3 ug/mL by MTT assay. It is filed as cell-based. Conditions: read-out: INH.
A short description of data set [16]: Cytotoxicity against human HCT116 cells at 30 ug/mL by MTT assay. The class given is cell-based, HCT-116. The note with it: read-out: INH.
Data set [17] can be described thus: Cytotoxicity against human HCT116 cells at 10 ug/mL by MTT assay. The class given is cell-based, HCT-116. The note with it: read-out: INH.
Data set [18] is described as follows: Cytotoxicity against human HCT116 cells at 3 ug/mL by MTT assay. Conditions: read-out: INH. It is filed as cell-based, HCT-116.

`CO[C@H]1/C=C/O[C@@]2(C)Oc3c(C)c(O)c4c(O)c(c(/C=N/N5CCN(C)CC5)c(O)c4c3C2=O)NC(=O)/C(C)=C\C=C\[C@H](C)[C@H](O)[C@@H](C)[C@@H](O)[C@@H](C)[C@H](OC(C)=O)[C@@H]1C` [RIFAMPIN]: the IC50 (in general, the concentration at which inhibition is half-maximal) in [1] was found to be 0.0016 µg/mL (≈ 0.00194 µM). The values for the IC90 in data set [2] and in data set [3] were 0.041 µg/mL (≈ 0.0498 µM) and 0.043 µg/mL (≈ 0.0523 µM), respectively.

Take `O=C1CSC(c2ccc(Cl)cc2)N1c1ccc(F)cc1` (stereo not drawn): the growth inhibition (GI) is -2.1% in [4], -9.9% in data set [5] and -1% in data set [9]. For the same compound, the inhibition of growth at 30 µg/mL in data set [6] is -45.6%. In [7], the inhibition of growth at 10 µg/mL was -3.2%. The inhibition of growth at 3 µg/mL in [8] was found to be 8.8%. In addition, the 50% inhibitory concentration (IC50) in data set [1] and in data set [3] was more than 30 µg/mL in each case. Besides, the IC90 in [2] and in [3] was more than 30 µg/mL throughout. Besides, the cytotoxicity at 30 ug/mL was 26.1% in data set [10], 0% in data set [13] and 34.5% in data set [16]. The cytotoxicity at 10 ug/mL in data set [11] worked out at 11.5%; in data set [14] it was 0%; in data set [17], 0.2%. The cytotoxicity at 3 ug/mL is 12.4% in [12], 0% in data set [15] and -6.2% in [18].

Take `O=C1CSC(c2ccc(Cl)cc2)N1c1ccc(Cl)cc1` (stereo not drawn): the growth inhibition (GI) in data set [4] was -20.2%; in data set [5], 0%; in data set [9], -0.8%. The inhibition of growth at 30 µg/mL in data set [6] was -19.8%. For the same compound, in [7], the inhibition of growth at 10 µg/mL turned out to be 24.1%. Besides, the inhibition of growth at 3 µg/mL in [8] was 11.8%. For the same compound, the IC50 in [1] and in [3] was more than 30 µg/mL each time. Further, the IC90 in data set [2] and in [3] was more than 30 µg/mL in each case. The cytotoxicity at 30 ug/mL came to 14.8% in data set [10], 0% in data set [13] and 15.9% in data set [16]. Moreover, the figures for the cytotoxicity at 10 ug/mL in [11], in [14] and in data set [17] were 16.6%, 0% and 1.3%, respectively. The cytotoxicity at 3 ug/mL is 14.5% in data set [12], 0% in [15] and -8.1% in data set [18].

In the case of `O=C1CSC(c2ccccc2)N1c1ccc(Br)cc1` (stereo not drawn), the results for the growth inhibition (GI) in data set [4], in data set [5] and in [9] were -14%, -2.7% and -35.7%, respectively. Also, in data set [6], the inhibition of growth at 30 µg/mL is -0.7%. For the same compound, the inhibition of growth at 10 µg/mL in [7] was -27.5%. Further, the inhibition of growth at 3 µg/mL in [8] is -6.9%. Moreover, the IC50 in [1] and in data set [3] was more than 30 µg/mL each time. For the same compound, the IC90 in data set [2] and in data set [3] was more than 30 µg/mL in each case. Besides, the figures for the cytotoxicity at 30 ug/mL in data set [10], in [13] and in data set [16] were 23.8%, 0% and 22%, respectively. Besides, the figures for the cytotoxicity at 10 ug/mL in data set [11], in data set [14] and in [17] were 9.4%, 0% and 8.2%, respectively. Also, the cytotoxicity at 3 ug/mL in data set [12] was -2.6%; in [15] it was 0%; in data set [18], -7.3%.

For the compound `Cc1ccc(N2C(=O)CSC2c2ccc([N+](=O)[O-])cc2)cc1` (stereo not drawn), the growth inhibition (GI) was -2% in data set [4], -6.1% in [5] and -7.1% in [9]. The inhibition of growth at 30 µg/mL in data set [6] turned out to be 14.4%. Further, the inhibition of growth at 10 µg/mL in data set [7] is -5.4%. Besides, in data set [8], the inhibition of growth at 3 µg/mL stood at 21.2%. Besides, the IC50 in [1] and in [3] was more than 30 µg/mL in each case. For the same compound, the IC90 in data set [2] and in data set [3] was more than 30 µg/mL throughout. Also, the cytotoxicity at 30 ug/mL in [10] was 45.6%; in [13], -10.3%; in data set [16], -12.4%. The cytotoxicity at 10 ug/mL was 38.8% in [11], 0% in [14] and -14.6% in data set [17]. In addition, the cytotoxicity at 3 ug/mL in [12] was 34.6%; in data set [15], -11.3%; in data set [18], -16.1%.

For the compound `COc1ccc(C2SCC(=O)N2c2ccc(Cl)cc2)cc1` (stereo not drawn), the growth inhibition (GI) is 5.3% in data set [4], -0.7% in data set [5] and 1.6% in [9]. Moreover, the inhibition of growth at 30 µg/mL in data set [6] turned out to be 9.5%. Also, the inhibition of growth at 10 µg/mL in data set [7] worked out at 18%. In [8], the inhibition of growth at 3 µg/mL stood at 37.6%. The IC50 in data set [1] and in data set [3] was more than 30 µg/mL each time. In addition, the IC90 in [2] and in [3] was more than 30 µg/mL in each case. Further, the cytotoxicity at 30 ug/mL in [10] was determined as 38.6%; in [13] it was 0%; in data set [16], 12%. Besides, the cytotoxicity at 10 ug/mL is 0% in [11], 0% in data set [14] and -2.3% in data set [17]. Also, the cytotoxicity at 3 ug/mL was 0% in data set [12], -4% in data set [15] and -2.9% in data set [18].
